ChEMBL document CHEMBL1201862, “PubChem BioAssay data set” (2004)
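Compound exposure: 48 hours, 5 concentrations, 96-well plates. The concentration for 50% growth inhibition is given as GI50.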 Calls of active or inactive are those of the source. Rule as the data show it: active = GI50 up to about 1.1 µM and inactive = higher.

Tests used:
Experiment in all cases: NCI anticancer screen, dose series, 48 h
[1] = tested on: UACC-257
[2] = tested on: Malme-3M
[3] = tested on: T47D
[4] = tested on: NCI-H23
[5] = tested on: U-251
[6] = tested on: SF-268
[7] = tested on: SW-620
[8] = tested on: HOP-92
[9] = tested on: DU-145
[10] = tested on: MOLT-4
[11] = tested on: HCT-116
[12] = tested on: SK-MEL-2
[13] = tested on: M14
[14] = tested on: UO-31
[15] = tested on: OVCAR-5
[16] = tested on: COLO 205
[17] = tested on: SK-MEL-28
[18] = tested on: MCF7
[19] = tested on: TK-10
[20] = tested on: IGROV-1

Structure (SMILES)	GI50 [1]	GI50 [2]	GI50 [3]	GI50 [4]	GI50 [5]	GI50 [6]	GI50 [7]	GI50 [8]	GI50 [9]	GI50 [10]	GI50 [11]	GI50 [12]	GI50 [13]	GI50 [14]	GI50 [15]	GI50 [16]	GI50 [17]	GI50 [18]	GI50 [19]	GI50 [20]
O=c1sc2c(s1)SSSSS2	28.6 µM (inactive)	> 50 µM (inactive)	> 50 µM (inactive)	> 50 µM (inactive)	> 50 µM (inactive)	28.6 µM (inactive)	> 50 µM (inactive)	> 50 µM (inactive)	> 50 µM (inactive)	11.8 µM (inactive)	> 50 µM (inactive)	> 50 µM (inactive)	> 50 µM (inactive)	> 50 µM (inactive)	> 50 µM (inactive)	> 50 µM (inactive)	> 50 µM (inactive)	31.1 µM (inactive)	> 50 µM (inactive)	> 50 µM (inactive)
CC(=O)NC1C(O)C(O)C(CO)OC1n1ncc(=O)[nH]c1=O (stereo not given)	> 100 µM (inactive)	> 100 µM (inactive)	> 100 µM (inactive)	> 100 µM (inactive)	> 100 µM (inactive)	> 100 µM (inactive)	> 100 µM (inactive)	> 100 µM (inactive)	> 100 µM (inactive)	> 100 µM (inactive)	> 100 µM (inactive)	> 100 µM (inactive)	> 100 µM (inactive)	> 100 µM (inactive)	> 100 µM (inactive)	> 100 µM (inactive)	> 100 µM (inactive)	> 100 µM (inactive)	> 100 µM (inactive)	> 100 µM (inactive)
COc1cc(C2S/C(=C/c3ccccc3)C(=O)N2c2ccc(Cl)c(Cl)c2)cc(OC)c1OC (stereo not given)	> 70.6 µM (inactive)	42 µM (inactive)	> 100 µM (inactive)	48.9 µM (inactive)	38.7 µM (inactive)	11.7 µM (inactive)	31 µM (inactive)	32.9 µM (inactive)	38.7 µM (inactive)	28.8 µM (inactive)	19.3 µM (inactive)	12.6 µM (inactive)	28.8 µM (inactive)	33.3 µM (inactive)	10.1 µM (inactive)	46.6 µM (inactive)	17.1 µM (inactive)	22.3 µM (inactive)	> 100 µM (inactive)	22.5 µM (inactive)
CCOC(=O)Cc1ccc(Nc2nc3ccccc3nc2C(=O)OCC)cc1	> 100 µM (inactive)	52.1 µM (inactive)	36.6 µM (inactive)	47.5 µM (inactive)	51.3 µM (inactive)	53.7 µM (inactive)	> 100 µM (inactive)	43.8 µM (inactive)	95.9 µM (inactive)	> 100 µM (inactive)	> 100 µM (inactive)	94 µM (inactive)	> 100 µM (inactive)	14.5 µM (inactive)	> 100 µM (inactive)	> 100 µM (inactive)	> 100 µM (inactive)	61.7 µM (inactive)	37.1 µM (inactive)	57.5 µM (inactive)
C=CCN1C(=O)C[C@H](Cc2ccccc2)NC(=O)C[C@H](Cc2ccccc2)N(CC=C)C(=O)C[C@H](Cc2ccccc2)NC(=O)C[C@@H]1Cc1ccccc1	6.97 µM (inactive)	3.81 µM (inactive)	6.3 µM (inactive)	> 100 µM (inactive)	12.9 µM (inactive)	6.12 µM (inactive)	62.7 µM (inactive)	4.48 µM (inactive)	> 100 µM (inactive)	2.69 µM (inactive)	14.8 µM (inactive)	6.73 µM (inactive)	8.09 µM (inactive)	7.03 µM (inactive)	> 100 µM (inactive)	2.3 µM (inactive)	61.9 µM (inactive)	4.04 µM (inactive)	8.79 µM (inactive)	20 µM (inactive)
COC1CC(OC2C(C)OC(OC3C(C)OC(OC4C(C)OC(O[C@H]5CC[C@@]6(C)C(=CC[C@]7(O)[C@@H]6C[C@@H](O)[C@@]6(C)[C@]7(O)CC[C@@]6(O)C(C)=O)C5)CC4OC)CC3OC)CC2OC)OC(C)C1O (stereo not given in full)	> 12.5 µM (inactive)	> 12.5 µM (inactive)	> 12.5 µM (inactive)	> 12.5 µM (inactive)	> 12.5 µM (inactive)	> 12.5 µM (inactive)	> 12.5 µM (inactive)	> 12.5 µM (inactive)	> 12.5 µM (inactive)	> 12.5 µM (inactive)	> 12.5 µM (inactive)	> 12.5 µM (inactive)	> 12.5 µM (inactive)	12.4 µM (inactive)	> 12.5 µM (inactive)	> 12.5 µM (inactive)	> 12.5 µM (inactive)	> 12.5 µM (inactive)	> 12.5 µM (inactive)	> 12.5 µM (inactive)
Cn1c(=O)c2c(nc3n(C)c(=O)c4ccccc4n23)n(C)c1=O	> 100 µM (inactive)	> 49.3 µM (inactive)	> 71 µM (inactive)	40.4 µM (inactive)	34 µM (inactive)	68.5 µM (inactive)	42.2 µM (inactive)	43.6 µM (inactive)	21.9 µM (inactive)	3.18 µM (inactive)	71 µM (inactive)	> 100 µM (inactive)	> 96.6 µM (inactive)	39.1 µM (inactive)	> 100 µM (inactive)	> 93.5 µM (inactive)	> 100 µM (inactive)	17.9 µM (inactive)	> 100 µM (inactive)	> 95.9 µM (inactive)
Cc1oc(N)c(S(=O)(=O)/C(C#N)=C/c2ccccc2[N+](=O)[O-])c1C	32.2 µM (inactive)	33.8 µM (inactive)	27 µM (inactive)	23.6 µM (inactive)	19.5 µM (inactive)	31 µM (inactive)	26.6 µM (inactive)	34.7 µM (inactive)	62.4 µM (inactive)	22.4 µM (inactive)	20.8 µM (inactive)	37.2 µM (inactive)	18.5 µM (inactive)	16.4 µM (inactive)	20.6 µM (inactive)	21.7 µM (inactive)	24.2 µM (inactive)	31.1 µM (inactive)	50.2 µM (inactive)	24.9 µM (inactive)
CCC#CCCCCCCCCC(F)C(=O)O (stereo not given)	> 100 µM (inactive)	> 100 µM (inactive)	> 100 µM (inactive)	> 100 µM (inactive)	> 100 µM (inactive)	> 100 µM (inactive)	> 100 µM (inactive)	> 100 µM (inactive)	> 100 µM (inactive)	> 100 µM (inactive)	> 100 µM (inactive)	> 100 µM (inactive)	> 100 µM (inactive)	> 100 µM (inactive)	> 100 µM (inactive)	> 100 µM (inactive)	> 100 µM (inactive)	> 100 µM (inactive)	> 100 µM (inactive)	> 100 µM (inactive)
O=C(c1c(F)c(F)c(F)c(F)c1F)N1CCN(C(=O)c2c(F)c(F)c(F)c(F)c2F)C1=S	8.34 µM (inactive)	4.58 µM (inactive)	6.46 µM (inactive)	6.81 µM (inactive)	6.49 µM (inactive)	11.3 µM (inactive)	1.84 µM (inactive)	3.89 µM (inactive)	14 µM (inactive)	2.77 µM (inactive)	2.84 µM (inactive)	2.11 µM (inactive)	1.56 µM (inactive)	5.55 µM (inactive)	15.6 µM (inactive)	7.01 µM (inactive)	4.8 µM (inactive)	5.43 µM (inactive)	13.9 µM (inactive)	4.4 µM (inactive)
CC1=NN(c2cccc(Cl)c2)C2(C1=C/C=C/c1ccccc1)C(Cl)C(=O)N2c1nc2ccccc2s1 (stereo not given)	36.7 µM (inactive)	39 µM (inactive)	15.8 µM (inactive)	16.9 µM (inactive)	6.92 µM (inactive)	7.74 µM (inactive)	18.9 µM (inactive)	19.5 µM (inactive)	9.33 µM (inactive)	1.53 µM (inactive)	19.3 µM (inactive)	18.7 µM (inactive)	23 µM (inactive)	21.4 µM (inactive)	34.1 µM (inactive)	62.7 µM (inactive)	26.2 µM (inactive)	9.14 µM (inactive)	53 µM (inactive)	27.5 µM (inactive)
Cc1cc(N(CC(C)Br)CC(C)Br)ccc1/N=N/c1ccccc1C(=O)O (stereo not given)	4.53 µM (inactive)	4.61 µM (inactive)	0.592 µM (active)	3.81 µM (inactive)	4.8 µM (inactive)	7.73 µM (inactive)	20 µM (inactive)	2.24 µM (inactive)	7.67 µM (inactive)	16.9 µM (inactive)	4.99 µM (inactive)	2.93 µM (inactive)	6.04 µM (inactive)	5.86 µM (inactive)	2.74 µM (inactive)	5.47 µM (inactive)	1.93 µM (inactive)	0.787 µM (active)	11.7 µM (inactive)	11 µM (inactive)
CC1Cc2cc(O)ccc2C2[C@@H]1C1CC[C@H](O)[C@@]1(C)C[C@@H]2O[N+](=O)[O-] (stereo not given in full)	13 µM (inactive)	10.7 µM (inactive)	9.55 µM (inactive)	12 µM (inactive)	3.99 µM (inactive)	16.2 µM (inactive)	6.76 µM (inactive)	13.1 µM (inactive)	7.45 µM (inactive)	7.48 µM (inactive)	5.18 µM (inactive)	5.46 µM (inactive)	6.15 µM (inactive)	13.7 µM (inactive)	33.4 µM (inactive)	22.3 µM (inactive)	17.5 µM (inactive)	4.86 µM (inactive)	13.2 µM (inactive)	25.2 µM (inactive)
O=C1C(SCCO)=C(SCCO)C(=O)c2ccccc21	1.29 µM (inactive)	1.1 µM (active)	1.22 µM (inactive)	0.518 µM (active)	0.711 µM (active)	1.56 µM (inactive)	0.695 µM (active)	0.805 µM (active)	2.05 µM (inactive)	0.0794 µM (active)	1.86 µM (inactive)	2 µM (inactive)	0.815 µM (active)	1.08 µM (active)	1.16 µM (inactive)	1.77 µM (inactive)	1.67 µM (inactive)	0.791 µM (active)	1.62 µM (inactive)	0.467 µM (active)
